Holding throughout (type): functional, cell-based
Assay [1] concerns A-375. The assay can be described thus: Antiproliferative activity against human A375 cells after 72 hrs by MTT assay. As to conditions: A-375, 72 h. A general note: Tetrazolium dyes change colour on reduction, which living cells bring about.
Assay [2] concerns PANC-1. The assay can be described thus: Antiproliferative activity against human PANC1 cells after 72 hrs by MTT assay. Conditions: PANC-1, 72 h.
Assay [3] relates to ASPC1. The assay can be described thus: Antiproliferative activity against human AsPC1 cells after 72 hrs by MTT assay. Conditions: ASPC1, 72 h.
The nature of assay [4]: Antiproliferative activity against human WM35 cells after 72 hrs by MTT assay. Conditions: WM35, 72 h.
The test system of assay [5] is HL-60. The assay can be described thus: Antiproliferative activity against human HL60 cells after 72 hrs by MTT assay. As to conditions: HL-60, 72 h.

The source of these data is ChEMBL document CHEMBL1153813, “Synthesis of biotinylated OSW-1” (Bioorg Med Chem Lett, 2009).

For orientation: IC50 means the concentration that inhibits the measured activity by half. Lower therefore signals higher potency. Consider `COc1ccc(C(=O)O[C@H]2[C@H](O[C@@H]3[C@@H](O)[C@H](O[C@H]4C[C@H]5[C@@H]6CC=C7C[C@@H](OC(=O)CCCCCCCNC(=O)CCCC[C@@H]8SC[C@@H]9NC(=O)N[C@@H]98)CC[C@]7(C)[C@H]6CC[C@]5(C)[C@@]4(O)[C@H](C)C(=O)CCC(C)C)OC[C@@H]3O)OC[C@@H](O)[C@@H]2O)cc1`, for which the IC50 in assay [1] is 0.2 nM; in assay [2] it was 1.1 nM; in assay [3], 0.7 nM; in assay [4] it was 0.2 nM; in assay [5] it was 0.1 nM.
